Source: patent publication US20220098203A1 (priority 2018, published 2022)
Like-named read-outs stand apart in the source and are kept apart here.

How the values were obtained:
HCT116 MTAP-/- = assay: Inhibition of cellular proliferation (Cell Titer Glo), HCT116 MTAP-/-; assay type: cell-based, human; conditions: 4 days, read-out: 4 Day Relative Growth Inhibition (MTAP −/−)
Experimental: (§1) Test compound impact on cancer cell growth was assessed by treating cancer cells with compound for 4 days and then measuring proliferation using an ATP-based cell proliferation readout (Cell Titer Glo, Promega Corporation).
(§2) In a typical assay an isogenic pair of HCT116 human colon carcinoma cell lines which vary only in MTAP deletion status (HCT116 MTAP+/+ and HCT116 MTAP−/−) were plated in 96-well dishes at appropriate cell density. Following 24 hours, cells were then treated with the candidate MAT2A inhibitor. […] Compound was then transferred to a working stock plate in cell culture media by adding 5 μL of compound in DMSO to 495 μL of cell culture media. This working stock was then added to cells via a further 5-fold dilution, by adding 25 μL of working stock to 100 μL of cells in culture media. Following compound addition, cells were incubated at 37° C./5% CO2 for 4 days.
(§3) The plate was then covered with aluminum foil and shaken for 15 minutes to ensure complete mixing and full cell lysis. […] This luminescence measure was converted to a proliferation index by subtracting from each data point the ATP luminescence signal measured from a bank (no cells) well and dividing by the ATP luminescence signal measured in 0.2% DMSO control well adjusted for signal in blank well.

[1] = system: SAM in HCT116 MTAP-deleted cells; assay: Cellular assay of target engagement (SAM), LC-MS/MS; assay type: cell-based, human; conditions: 72 h, read-out: Cell 72 h SAM Inhibition (MTAP −/−)
Experimental: Measurement of MAT2A activity in cells was made by direct quantitation of the abundance of the product of its enzymatic activity, SAM. Cancer cells were treated with candidate MAT2A inhibitors for a suitable incubation period, and the cells were then lysed using a reagent which quenched any further enzyme activity. Soluble metabolites including SAM were collected and SAM itself was directly measured from the lysate using quantitative LC-MS/MS.
A typical assay was performed using an HCT116 human colon carcinoma cell line which was genetically engineered to delete the MTAP gene (commercially available from Horizon Discovery). […] Cells were plated in 96-well dishes at appropriate cell density. Following 24 hours, cells were then treated with the candidate MAT2A inhibitor. […] Compound was then transferred to a working stock plate in cell culture media by adding 5 μL of compound in DMSO to 495 μL of cell culture media. This working stock was then added to cells via a further 5-fold dilution, by adding 25 μL of working stock to 100 μL of cells in culture media. Following compound addition, cells were incubated at 37° C./5% CO2 for 72 hrs.
To quantitate SAM levels following compound treatment, cells were gently washed once in ammonium carbonate buffer (75 mM at pH 7.4), placed on dry ice, and lysed with metabolite extraction buffer (80% cold methanol and 20% water (v/v) with acetic acid at 1M final concentration with 200 ng/mL deuterated d3-SAM as internal control). Following centrifugation at 4° C. at 3,200 rpm for 30 minutes, the supernatant was collected and stored at −80° C. until analysis by Liquid Chromatography with tandem Mass Spectrometry (LC-MS/MS). LC-MS/MS analysis was performed using an API6500 Mass Spectrometer (Sciex, Framingham, Mass., USA) operating in positive ion spray mode and equipped with a Waters UPLC Acquity (Waters, Milford, Mass., USA) BEH Amide column.

HCT116 MTAP+/+ = assay: Inhibition of cellular proliferation (Cell Titer Glo), HCT116 MTAP+/+; assay type: cell-based; conditions: Homo sapiens, HCT-116, 96 h, Table 5a, 4 days, read-out: 4 Day Relative Growth Inhibition (MTAP +/+)
Experimental: as §1, §2, §3

MAT2A homodimer = target: T1, MAT2A homodimer (Homo sapiens, UniProt P31153); assay: MAT2A biochemical assay (liberated phosphate, PiColorLock Gold); conditions: Table 5a; MAT2A biochemical assay; read-out: Enzyme Inhibition
T1 construct: inferred from the Ni sepharose purification and imidazole elution; made in house; host or cells: SF9 insect cells, recombinant baculovirus (Bac to Bac, pFASTBAC1)
T1 sequence (P31153 whole entry): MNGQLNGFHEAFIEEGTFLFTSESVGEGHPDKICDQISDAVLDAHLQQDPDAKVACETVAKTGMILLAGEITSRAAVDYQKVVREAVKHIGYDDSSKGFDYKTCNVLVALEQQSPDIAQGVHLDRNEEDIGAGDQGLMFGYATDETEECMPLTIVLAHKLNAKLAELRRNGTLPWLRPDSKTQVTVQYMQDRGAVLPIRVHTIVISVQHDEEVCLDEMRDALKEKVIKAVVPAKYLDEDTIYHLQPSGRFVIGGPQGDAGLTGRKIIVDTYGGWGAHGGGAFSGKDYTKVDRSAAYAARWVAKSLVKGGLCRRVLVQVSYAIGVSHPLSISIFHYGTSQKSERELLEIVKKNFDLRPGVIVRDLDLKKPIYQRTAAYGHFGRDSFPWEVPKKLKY
Method in brief: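 Readout is liberated phosphate (PiColorLock Gold), stoichiometric with SAM production, quantified against a potassium phosphate standard curve. Enzyme: recombinant MAT2A homodimer from Sf9, equilibrated 60 min at 25 °C with compound before 60 min reaction with substrate mix containing 500 μM ATP and 400 μM L-methionine.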

[2] = Homo sapiens, HCT-116, 96 h, Table 5a
[3] = Homo sapiens, HCT-116, Table 5a
[4] = Table 6, select pairs of compounds

| Compound | IC50 (HCT116 MTAP-/-; [2]) [nM] | IC50 [1, 3] [nM] | IC50 (HCT116 MTAP+/+) [nM] | IC50 (MAT2A homodimer) [nM] | IC50 (HCT116 MTAP-/-; [4]) [nM] | IC50 [1, 4] [nM] |
| --- | --- | --- | --- | --- | --- | --- |
| Cn1cc2cc(N3Cc4ccc(OC5CC5)nc4N(c4ccc(OC(F)F)cc4)C3=O)ccc2n1 [Example 144, 7-cyclopropoxy-1-(4-(difluoromethoxy)phenyl)-3-(2-methyl-2H-indazol-5-yl)-3,4-dihydropyrido[2,3-d]pyrimidin-2(1H)-one] | 100 to 1000 | < 100 | > 1000 | < 100 |  |  |
| CCOc1ccc2c(n1)N(c1ccc(OC(F)F)cc1)C(=O)N(c1ccc3nnn(C)c3c1)C2 [Example 109] | 100 to 1000 | < 100 | > 1000 | < 100 |  |  |
| [2H]C([2H])([2H])Oc1ccc(N2Cc3cnc(NCC(F)(F)F)nc3N(c3ccc(-c4nc[nH]n4)cc3)C2=O)cc1 [Example 215, 1-(4-(1H-1,2,4-triazol-3-yl)phenyl)-3-(4-(methoxy-d3)phenyl)-7-((2,2,2-trifluoroethyl)amino)-3,4-dihydropyrimido[4,5-d]pyrimidin-2(1H)-one] | 100 to 1000 | < 100 | > 1000 | < 100 |  |  |
| COc1ccc(N2C(=O)N(c3ccc4nn(C)cc4c3)Cc3ccc(NC4CCC4)nc32)cc1 [Example 162, 7-(cyclobutylamino)-1-(4-methoxyphenyl)-3-(2-methyl-2H-indazol-5-yl)-3,4-dihydropyrido[2,3-d]pyrimidin-2(1H)-one] | 100 to 1000 | 100 to 1000 | > 1000 | < 100 |  |  |
| CCOc1cnc2c(n1)N(c1ccc(OC(F)F)cc1)C(=O)N(c1ccc3nn(C)cc3c1)C2 [Example 183, 1-(4-(difluoromethoxy)phenyl)-7-ethoxy-3-(2-methyl-2H-indazol-5-yl)-3,4-dihydropteridin-2(1H)-one] | 100 to 1000 | < 100 | > 1000 | < 100 |  |  |
| CCCc1ccc2c(n1)N(c1ccc(OC)cc1)C(=O)N(c1ccc3nn(C)cc3c1)C2 [Example 294, 1-(4-methoxyphenyl)-3-(2-methyl-2H-indazol-5-yl)-7-propyl-3,4-dihydropyrido[2,3-d]pyrimidin-2(1H)-one] | < 100 | < 100 | > 1000 | < 100 |  |  |
| CCOc1ccc2c(n1)N(c1ccc(C(F)F)nc1)C(=O)N(c1ccc3nn(C)cc3c1)C2 [Example 149, 1-(6-(difluoromethyl)pyridin-3-yl)-7-ethoxy-3-(2-methyl-2H-indazol-5-yl)-3,4-dihydropyrido[2,3-d]pyrimidin-2(1H)-one] | < 100 | 100 to 1000 | > 1000 | < 100 |  |  |
| COc1ccc(N2Cc3cnc(NCC(F)(F)F)nc3N(c3ccc(C4CC4)cc3)C2=O)cc1 [Example 242, 1-(4-cyclopropylphenyl)-3-(4-methoxyphenyl)-7-((2,2,2-trifluoroethyl)amino)-3,4-dihydropyrimido[4,5-d]pyrimidin-2(1H)-one] | 100 to 1000 | 100 to 1000 | > 1000 | < 100 |  |  |
| COc1ccc(N2C(=O)N(c3ccc4ncccc4c3)Cc3cnc(NCC(F)(F)F)nc32)cc1 [Example 241] | 100 to 1000 | 100 to 1000 | > 1000 | < 100 |  |  |
| Cn1cnc2ccc(N3Cc4ccc(OCC(F)(F)F)nc4N(c4ccc(OC(F)F)cc4)C3=O)cc21 [Example 273] | 100 to 1000 | 100 to 1000 | > 1000 | < 100 |  |  |
| Cn1cc2cc(N3Cc4ccc(NCC(F)(F)F)nc4N(c4ccc(OC(F)F)cc4)C3=O)ccc2n1 [Example 264, 1-(4-(difluoromethoxy)phenyl)-3-(2-methyl-2H-indazol-5-yl)-7-((2,2,2-trifluoroethyl)amino)-3,4-dihydropyrido[2,3-d]pyrimidin-2(1H)-one] | < 100 | < 100 | > 1000 | < 100 | < 100 | < 100 |
| COc1ccc(N2C(=O)N(c3ccnc(OC)c3)Cc3cnc(NCC(F)(F)F)nc32)cc1 [Example 228, 1-(4-methoxyphenyl)-3-(2-methoxypyridin-4-yl)-7-((2,2,2-trifluoroethyl)amino)-3,4-dihydropyrimido[4,5-d]pyrimidin-2(1H)-one] | 100 to 1000 | 100 to 1000 | > 1000 | < 100 |  |  |

Results, then the compound that gave them:

| IC50 (HCT116 MTAP-/-; [2]) [nM] | IC50 [1, 3] [nM] | IC50 (HCT116 MTAP+/+) [nM] | IC50 (MAT2A homodimer) [nM] | IC50 (HCT116 MTAP-/-; [4]) [nM] | IC50 [1, 4] [nM] | Compound |
| --- | --- | --- | --- | --- | --- | --- |
| < 100 | 100 to 1000 | > 1000 | < 100 |  |  | [2H]C([2H])([2H])Oc1ccc(N2C(=O)N(c3ccc4nn(C(C)C)cc4c3)Cc3ccc(OCC(F)F)nc32)cc1 [Example 118, 7-(2,2-difluoroethoxy)-3-(2-isopropyl-2H-indazol-5-yl)-1-(4-methoxy-d3-phenyl)-3,4-dihydropyrido[2,3-d]pyrimidin-2(1H)-one] |
| 100 to 1000 | < 100 | > 1000 | < 100 |  |  | Cn1cc2cc(N3Cc4ccc(OCC(F)F)nc4N(c4ccc(O)cc4)C3=O)ccc2n1 [Example 295, 7-(2,2-difluoroethoxy)-1-(4-hydroxyphenyl)-3-(2-methyl-2H-indazol-5-yl)-3,4-dihydropyrido[2,3-d]pyrimidin-2(1H)-one] |
| 100 to 1000 | < 100 | 100 to 1000 | < 100 |  |  | [2H]C([2H])([2H])Oc1ccc(N2C(=O)N(c3ccc4nn(C)cc4c3)Cc3ncc(OCC)nc32)cc1 [Example 417, 7-ethoxy-1-(4-(methoxy-d3)phenyl)-3-(2-methyl-2H-indazol-5-yl)-3,4-dihydropteridin-2(1H)-one] |
| 100 to 1000 | < 100 | 100 to 1000 | < 100 |  |  | CCOc1ccc2c(n1)N(c1ccc(OC(F)F)cc1)C(=O)N(c1ccc3nn(C)cc3c1)C2 [Example 131, 1-(4-(difluoromethoxy)phenyl)-7-ethoxy-3-(2-methyl-2H-indazol-5-yl)-3,4-dihydropyrido[2,3-d]pyrimidin-2(1H)-one] |
| 100 to 1000 | < 100 | > 1000 | < 100 |  |  | Cn1cc2cc(N3Cc4ccc(OCC(F)F)nc4N(c4ccc5[nH]ncc5c4)C3=O)ccc2n1 [Example 405, 7-(2,2-difluoroethoxy)-1-(1H-indazol-5-yl)-3-(2-methyl-2H-indazol-5-yl)-3,4-dihydropyrido[2,3-d]pyrimidin-2(1H)-one] |
| 100 to 1000 | 100 to 1000 | > 1000 | < 100 |  |  | [2H]C([2H])([2H])Oc1ccc(N2C(=O)N(c3ccc4nn(C)cc4c3)Cc3ccc(OCCC)nc32)cc1 [Example 165, 1-(4-methoxy-d3-phenyl)-3-(2-methyl-2H-indazol-5-yl)-7-propoxy-3,4-dihydropyrido[2,3-d]pyrimidin-2(1H)-one] |
| < 100 | < 100 | > 1000 | < 100 |  |  | Cn1cc2cc(N3Cc4ccc(OCC(F)F)nc4N(c4ccc(OC(F)F)cc4)C3=O)ccc2n1 [Example 145, 7-(2,2-difluoroethoxy)-1-(4-(difluoromethoxy)phenyl)-3-(2-methyl-2H-indazol-5-yl)-3,4-dihydropyrido[2,3-d]pyrimidin-2(1H)-one] |
| 100 to 1000 | < 100 | > 1000 | < 100 |  |  | CCOc1ccc2c(n1)N(c1ccc(OC(F)F)cc1)C(=O)N(c1ccc3ncn(C)c3c1)C2 [Example 272] |
